One molecule from PMC8385062, “Deciphering ion transport and ATPase coupling in the intersubunit tunnel of KdpFABC” (Nature Communications, 2021) can be followed below.

For this test, the target named is T1, KdpFABC (nucleotide / vanadate rows, site in KdpB) (Escherichia coli, UniProt P03960, D307N).
T1 construct: heterotetrameric complex, His-tagged KdpC, pBXC3H vector, produced in E. coli LB2003 (lacks endogenous K+ uptake systems), purified; Potassium-transporting ATPase KdpC subunit; Potassium-transporting ATPase KdpF subunit
T1 sequence (P03960 whole entry D307N): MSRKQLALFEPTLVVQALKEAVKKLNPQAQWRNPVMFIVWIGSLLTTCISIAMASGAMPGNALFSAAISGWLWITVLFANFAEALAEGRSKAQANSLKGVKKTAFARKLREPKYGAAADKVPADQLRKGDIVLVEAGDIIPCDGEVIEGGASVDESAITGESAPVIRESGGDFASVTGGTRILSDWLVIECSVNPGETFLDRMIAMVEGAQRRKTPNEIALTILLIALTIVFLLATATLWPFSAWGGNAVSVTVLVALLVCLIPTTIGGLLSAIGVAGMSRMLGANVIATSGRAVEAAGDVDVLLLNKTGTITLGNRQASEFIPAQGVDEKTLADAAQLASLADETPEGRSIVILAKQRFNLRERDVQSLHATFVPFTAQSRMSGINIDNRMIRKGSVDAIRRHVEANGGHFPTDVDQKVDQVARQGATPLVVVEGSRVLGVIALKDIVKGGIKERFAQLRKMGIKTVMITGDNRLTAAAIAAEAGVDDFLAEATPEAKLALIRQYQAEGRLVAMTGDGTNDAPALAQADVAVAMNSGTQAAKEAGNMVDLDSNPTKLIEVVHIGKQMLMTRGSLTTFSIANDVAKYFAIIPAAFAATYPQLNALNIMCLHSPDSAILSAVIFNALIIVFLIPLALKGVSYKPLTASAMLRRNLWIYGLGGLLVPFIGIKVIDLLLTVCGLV
T1 sequence (P03959 whole entry partner): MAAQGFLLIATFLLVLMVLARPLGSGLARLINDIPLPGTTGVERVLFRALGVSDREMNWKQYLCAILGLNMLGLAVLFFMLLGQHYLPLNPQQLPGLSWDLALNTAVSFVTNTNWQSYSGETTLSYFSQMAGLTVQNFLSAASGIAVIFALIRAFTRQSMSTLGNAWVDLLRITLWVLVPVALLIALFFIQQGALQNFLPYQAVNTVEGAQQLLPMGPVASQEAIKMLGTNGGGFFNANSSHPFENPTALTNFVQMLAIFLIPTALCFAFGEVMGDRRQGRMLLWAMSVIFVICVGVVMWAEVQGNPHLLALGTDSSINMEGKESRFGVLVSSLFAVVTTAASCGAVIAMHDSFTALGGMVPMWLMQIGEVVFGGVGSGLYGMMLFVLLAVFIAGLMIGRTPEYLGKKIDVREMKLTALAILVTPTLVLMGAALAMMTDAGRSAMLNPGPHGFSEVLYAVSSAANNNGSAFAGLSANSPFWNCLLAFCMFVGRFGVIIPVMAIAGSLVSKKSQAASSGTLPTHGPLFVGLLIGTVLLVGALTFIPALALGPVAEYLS
T1 sequence (P03961 whole entry partner): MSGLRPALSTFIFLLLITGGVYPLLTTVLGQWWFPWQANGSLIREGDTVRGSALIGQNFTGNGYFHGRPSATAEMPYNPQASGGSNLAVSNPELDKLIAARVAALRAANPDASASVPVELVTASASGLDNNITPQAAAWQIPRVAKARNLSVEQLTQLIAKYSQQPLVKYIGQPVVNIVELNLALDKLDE
T1 sequence (P36937 whole entry partner): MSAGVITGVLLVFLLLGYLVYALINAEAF
Nature of the test: cryo-EM structure, […] Å. The settings on record: 5 mM AMPPCP, 50 mM KCl; between N and P domains of KdpB, E1·ATP state. It is filed as binding.

`Nc1ncnc2c1ncn2[C@@H]1O[C@H](COP(=O)(O)OP(=O)(O)CP(=O)(O)O)[C@@H](O)[C@H]1O` [AMPPCP]: the “cryo-EM structure, 3.1 Å” value is “The nucleotide AMPPCP is coordinated between the N and P domains”.
